What all share (assay type): in vivo
The test system of data set [1] is non-sensitized mice. As to the kind of experiment: PMB (native and conjugated forms) induced lethality, i.p. To be noted: i.p. injection, lethality monitored for 7 days. How it is done: B. PMB (native and conjugated forms) induced lethality
PMB (native and conjugated forms) are evaluated for their inherent toxicity in non-sensitized mice. Male CB57BL/c mice (18-22 g, Jackson Labs) are used throughout this study. Animals are given either native PMB or conjugated PMB by intraperitoneal injection (0.5 ml/animal) and lethality monitored for 7 days. The LD100 is determined by varying the dose of PMB (native and conjugated forms) that result in 100% lethality. From 10-20 animals are used for each dose.

The test system of data set [2] is endotoxin (0111B4). The experiment in a line: PMB anti-endotoxin evaluations: protection from endotoxin-induced lethality in galactosamine-hypersensitized mice. How it is done: A. Endotoxin-induced lethality
Male CB57BL/c mice (18-22 g, Jackson Labs) are used throughout this study. Animals are given endotoxin (0111B4 from List Biologicals, Palo Alto, Calif.) and galactosamine to hypersensitize, as described in Galanos et al., 1979. Proc. Natl. Acad. Sci. USA 76: 5939. The endotoxin and galactosamine (320 mg/kg) are injected intraperitoneally in 0.5 ml pyrogen-free isotonic saline per animal between 13:00 and 15:00 to avoid diurnal variation. From a dose-response study, it is determined that 0.01 mg/kg endotoxin produces 85-95% lethality. Animals are observed each day for 6 days after injection.
C. PMB anti-endotoxin evaluations
PMB (native and conjugated forms) are evaluated for their ability to neutralize endotoxin by either pre-mixing with endotoxin for 60 minutes before i.p. injection or by coadministration of the substances as a single i.p. injection. While the concentration of the PMB (native and conjugated forms) are varied, the volume of each injection is kept constant at 0.5 ml per animal. The protection by the conjugated PMB was compared to the native PMB (in terms of mg protein/kg). Controls (endotoxin, galactosamine, and vehicle) are included as well in each study. Each group has between 10-17 animals. […]
The Therapeutic Index (TI) for PMB (native and conjugated) forms is determined by dividing the LD100 by the PD100. […]

Data set [3] has as its system normal test animal. As to the kind of experiment: i.v. toxicity (LD0, LD100), lethality monitored over 7 days. The text has this:
LD0 is the highest non-toxic dose of PMB or its conjugate.
LD100 is the dose of PMB or its conjugated form which results in 90-100% lethality when injected into a normal test animal.
The "ultra pure" PMB-conjugate has a suprising reduction in toxicity as compared with native PMB. […] Comparisons in the table below are made between the highest non-toxic dose of PMB (native or conjugated)
^1 PMB (native or conjugate) given by i.v. injection and lethality
monitored over 7 days. LD0 is the highest nontoxic dose which can be
injected into a normal test animal.

Data set [4] has as its system E.coli 0111B4 endotoxin. As to the kind of experiment: i.v. protection against LD90 endotoxin challenge (endotoxin-induced lethality test). To be noted: i.v. injection 1-3 minutes before an LD90 i.p. injection of E.coli 0111B4 endotoxin (0.5 μg/kg). How it is done:
The resulting "ultra pure" PMB-conjugate is compared to native PMB in an endotoxin-induced leathality test as described in Example 3C supra.
At 1 mg/kg i.v., the ultra-pure PMB-conjugate gave >70% protection against a LD90 endotoxin challenge for at least 6 hours. […] Therefore the PMB-conjugate is suitable for prophylactic use.
^2 PMB (native or conjugate) given by i.v. injection 1-3 minutes
before an LD90 i.p. injection of E.coli 0111B4 endotoxin (0.5

For polymyxin B [Native PMB], the LD100 in data set [1] was determined as 25 mg/kg; in data set [3] (i.v.), 9.5 mg/kg. Also, the PD100 in data set [2] (PMB or conjugate allowed to react with the endotoxin for 60 min before i.p. injection) was 2 mg/kg; in data set [2] (i.p., dose giving >95% survival, pre-mixing or coadministration with endotoxin not stated for the row), 2 mg/kg; in data set [4], 0.1 mg/kg. In addition, the “LD0 (highest non-toxic dose)” value in data set [3] (i.v. injection, lethality monitored over 7 days) is recorded as 5 mg/kg.

The record behind these values is patent publication US5177059A, “Polymyxin B conjugates” (Sandoz Ltd., priority 1990, dated 1993).
